Data taken from US11542274B1, “Therapeutic compounds and methods of use thereof” (AGENCY FOR SCIENCE, TECHNOLOGY AND RESEARCH (A*STAR), priority 2019, dated 2023).
“Also recorded” adds a separate entry of the source. One block for each compound: values may come before it.

How the values were obtained:
truncated CRBN (319-427) = truncated CRBN (319-427) (Homo sapiens (Human), UniProt Q96SW2); experiment: Fluorescence binding assay (fluorescence quenching), affinity to E3-CEREBLON (CRBN)-ubiquitin ligase; settings: ubiquitination moiety, pH 6.5
Chain of truncated CRBN (319-427) (Q96SW2 319-427): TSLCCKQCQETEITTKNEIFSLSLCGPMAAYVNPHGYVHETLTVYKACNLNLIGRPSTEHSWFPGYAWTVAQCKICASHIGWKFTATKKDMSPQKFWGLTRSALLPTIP

[1] = molecular target: CRBN (truncated, residues 319-427) (Homo sapiens (Human), UniProt Q96SW2); experiment: NMR binding experiments (1H-15N HSQC titration); settings: 15N-labeled CRBN, ligand to CRBN ratios 0, 0.5, 1.0 and 1.5, 25° C.
Chain of CRBN (truncated, residues 319-427) (Q96SW2 319-427): as above
Experimental: All the NMR experiments were carried out on a Bruker magnet with proton frequency of 600 MHz or 700 MHz equipped with a cryo-probe. The experiments were performed at 25° C. The ^1H-^15N HSQC spectrum was collected using a standard pulse from the pulse library (Topspin version 2.1). To test whether a developed CRBN binder interacts with CRBN, titration of the compound to ^15N-labeled CRBN was carried out. The ^1H-^15N HSQC spectra of mixtures in which ligand to CRBN ratios are 0, 0.5, 1.0 and 1.5 were collected and compared. The data were collected using Topspin (ver 2.1) provided with equipment. The data were processed with topspin (ver 2.1), NMRPipe (Delaglio et al. 1995) and visualized using NMRView (Johnson 2004). The truncated CRBN: residues 319-427 was used in the NMR experiments.

[2] = system: RAMOS cells (Burkitt's lymphoma cell line); experiment: Anti-proliferation assay (CellTiter-Glo); assay type: cell-based; settings: 3 days
Experimental: In cell growth experiments, cells were seeded in 96-well cell culture plates at a density of 3000 of RAMOS cells/well in 100 μL of culture medium. 100 μL of the diluted solution containing the tested compound was added to the appropriate wells of the cell plate. After addition of the tested compound, the cells were incubated at 37° C. in an atmosphere of 5% CO2 for 3 days. CellTiter-Glo (CTG) reagent from the Promega CellTiter-Glo Luminescent Cell Viability Assay kit (#G7572) was added into an OptiPlate 96 (Perkin Elmer, White, Opaque, #6005299) in the dark, incubated for at least 2 hrs, and luminescence signal was read using Tecan Safire II Multi-Mode Plate Reader. The GI50 was calculated by nonlinear regression analysis using GraphPad Prism5 software.
GI50 is the concentration for 50% of maximal inhibition of cell proliferation.

BRD4 = BRD4 (Homo sapiens (Human), UniProt O60885); experiment: Western blot analysis of BRD4 degradation in RAMOS cells; assay type: cell-based
Experimental: Ramos (ATCC, CRL-1596) cells cultured in Roswell Park Memorial Institute (RPMI) 1640 Medium supplemented with 10% Fetal bovine serum and 1% Penicillin-streptomycin at 37° C. in humidified atmosphere with 5% CO2. In 6-well plate, 1.2 million cells were treated with indicated PROTAC compounds at 0.1% final concentration (v/v) of DMSO for desired duration of time. Pelleted cells were lysed in RIPA buffer (1% Nonidet P-40, 0.5% sodium deoxycholate, 0.1% SDS in 1× Tris-buffered saline) supplemented with protease inhibitor cocktail, 0.5 U/μL Benzonase (Novagen) and 1 mM MgCl2. Lysates were incubated on ice for 10 minutes followed by 15 minutes' centrifugation at 15000×g at 4° C. Supernatant was collected and subjected to Bradford protein quantification assay. Heat-denatured lysates (50 μg total protein) were loaded on NuPAGE 3-8% Tris-Acetate SDS protein gels. Proteins were transferred to PVDF membrane using iBlot 2 Dry Blotting Device (Thermo Fisher Scientific) at 20V for 13 minutes. Membranes were processed using iBind Flex Western Device (Thermo Fisher Scientific) by following the manufacturer's guideline. Membranes were probed with anti-BRD4 (Cell Signaling, Cat. #13440S), anti-c-Myc (Cell Signaling, Cat. #5605S), anti-β-actin (Proteintech, Cat. #66009-1-lg) antibodies, and developed with anti-Rabbit IgG, HRP-linked F(ab′)2 fragment (from donkey) (GE Life Sciences, Cat. #NA-9340) or anti-mouse IgG, AP-linked Antibody (Cell Signaling Technologies, Cat. #7056S) secondary antibodies. Membranes were incubated with Amersham ECL Select Western Blotting Detection Reagent (GE life sciences, Cat. #RPN2235) and Immun-Star™ AP Chemiluminescence Kits (Biorad, Cat. #1705018), visualized under FluorChem system (Protein Simple).
The protocol was run at 4 different inhibitor concentrations: 5 μM, 1 μM, 0.3 μM, 0.1 μM, using neat DMSO as the negative control. The % BRD4 degradation in western blot analysis is graded as follows: • K: Protein degradation >70% • L: 40%≤protein degradation<70% • M: protein degradation<40%

Compound: Nc1cc(-c2ccc3c(c2)NC(=O)C3)ccn1 [Compound 011, 6-(2-aminopyridin-4-yl)indolin-2-one]
- IC50 (truncated CRBN (319-427)): 100 to 300 µM
- binding to CRBN in HSQC titration experiments [1]: bind to protein CRBN; also recorded: clear binding

Compound: Nc1cnccc1-c1ccc2c(c1)NC(=O)C2 [Compound 012, 6-(3-aminopyridin-4-yl)indolin-2-one]
- IC50 (truncated CRBN (319-427)): > 300 µM
- binding to CRBN in HSQC titration experiments [1]: bind to protein CRBN; also recorded: clear binding

Compound: Nc1ccc(-c2ccc3c(c2)NC(=O)C3)cn1 [Compound 013, 6-(6-aminopyridin-3-yl)indolin-2-one]
- IC50 (truncated CRBN (319-427)): > 300 µM
- binding to CRBN in HSQC titration experiments [1]: bind to protein CRBN; also recorded: clear binding

Compound: Nc1cc(-c2ccc3c(c2)CC(=O)N3)ccn1 [Compound 040, 5-(2-aminopyridin-4-yl)indolin-2-one]
- IC50 (truncated CRBN (319-427)): 100 to 300 µM
- binding to CRBN in HSQC titration experiments [1]: bind to protein CRBN; also recorded: clear binding

Compound: Nc1ncccc1-c1ccc2c(c1)CC(=O)N2 [Compound 045, 5-(2-aminopyridin-3-yl)indolin-2-one]
- IC50 (truncated CRBN (319-427)): 100 to 300 µM
- binding to CRBN in HSQC titration experiments [1]: bind to protein CRBN; also recorded: clear binding

Compound: Cc1sc2c(c1C)C(c1ccc(Cl)cc1)=N[C@@H](CC(=O)NCCOCCOc1ccc(-c3ccc4c(c3)CC(=O)N4)cn1)c1nnc(C)n1-2 [Compound 132, (S)-2-(4-(4-chlorophenyl)-2,3,9-trimethyl-6H-thieno[3,2-f][1,2,4]triazolo[4,3-a][1,4]diazepin-6-yl)-N-(2-(2-((5-(2-oxoindolin-5-yl)pyridin-2-yl)oxy)ethoxy)ethyl)acetamide]
- GI50 ([2]; Homo sapiens, 72 h): 0.001 to 0.1 µM

Compound: Cc1sc2c(c1C)C(c1ccc(Cl)cc1)=N[C@@H](CC(=O)NCCOCCNc1ncc(-c3ccc4c(c3)CC(=O)N4)cn1)c1nnc(C)n1-2 [Compound 133, (S)-2-(4-(4-chlorophenyl)-2,3,9-trimethyl-6H-thieno[3,2-f][1,2,4]triazolo[4,3-a][1,4]diazepin-6-yl)-N-(2-(2-((5-(2-oxoindolin-5-yl)pyrimidin-2-yl)amino)ethoxy)ethyl)acetamide]
- GI50 ([2]; Homo sapiens, 72 h): 0.001 to 0.1 µM

Compound: Cc1sc2c(c1C)C(c1ccc(Cl)cc1)=N[C@@H](CC(=O)NCCOCCNc1ncccc1-c1ccc3c(c1)CC(=O)N3)c1nnc(C)n1-2 [Compound 135, (S)-2-(4-(4-chlorophenyl)-2,3,9-trimethyl-6H-thieno[3,2-f][1,2,4]triazolo[4,3-a][1,4]diazepin-6-yl)-N-(2-(2-((3-(2-oxoindolin-5-yl)pyridin-2-yl)amino)ethoxy)ethyl)acetamide]
- GI50 ([2]; Homo sapiens, 72 h): 0.001 to 0.1 µM

Compound: Cc1sc2c(c1C)C(c1ccc(Cl)cc1)=N[C@@H](CC(=O)NC1CCN(c3ncccc3-c3ccc4c(c3)CC(=O)N4)CC1)c1nnc(C)n1-2 [Compound 136, (S)-2-(4-(4-chlorophenyl)-2,3,9-trimethyl-6H-thieno[3,2-f][1,2,4]triazolo[4,3-a][1,4]diazepin-6-yl)-N-(1-(3-(2-oxoindolin-5-yl)pyridin-2-yl)piperidin-4-yl)acetamide]
- GI50 ([2]; Homo sapiens, 72 h): 0.001 to 0.1 µM

Compound: Cc1sc2c(c1C)C(c1ccc(Cl)cc1)=N[C@@H](CC(=O)NCCCCNc1ncccc1-c1ccc3c(c1)CC(=O)N3)c1nnc(C)n1-2 [Compound 139, (S)-2-(4-(4-chlorophenyl)-2,3,9-trimethyl-6H-thieno[3,2-f][1,2,4]triazolo[4,3-a][1,4]diazepin-6-yl)-N-(4-((3-(2-oxoindolin-5-yl)pyridin-2-yl)amino)butyl)acetamide]
- GI50 ([2]; Homo sapiens, 72 h): 0.1 to 1 µM

Compound: (S)-2-(4-(4-chlorophenyl)-2,3,9-trimethyl-6H-thieno[3,2-f][1,2,4]triazolo[4,3-a][1,4]diazepin-6-yl)-N-(2-oxo-2-(4-(5-(2-oxoindolin-5-yl)pyridin-2-yl)piperazin-1-yl)ethyl)acetamide [Compound 122]
- GI50 [2]: 0.001 to 0.1 µM

Other lines, results leading:

- GI50 ([2]; Homo sapiens, 72 h): 0.001 to 0.1 µM
Compound: Cc1sc2c(c1C)C(c1ccc(Cl)cc1)=N[C@@H](CC(=O)NCCC1CCN(c3ccc(-c4ccc5c(c4)CC(=O)N5)cn3)CC1)c1nnc(C)n1-2 [Compound 134, (S)-2-(4-(4-chlorophenyl)-2,3,9-trimethyl-6H-thieno[3,2-f][1,2,4]triazolo[4,3-a][1,4]diazepin-6-yl)-N-(2-(1-(5-(2-oxoindolin-5-yl)pyridin-2-yl)piperidin-4-yl)ethyl)acetamide]

- GI50 ([2]; Homo sapiens, 72 h): 0.1 to 1 µM
Compound: Cc1sc2c(c1C)C(c1ccc(Cl)cc1)=N[C@@H](CC(=O)N1CCC3(CCN(c4ncccc4-c4ccc5c(c4)CC(=O)N5)C3)C1)c1nnc(C)n1-2 (stereo partly shown) [Compound 137]

- GI50 ([2]; Homo sapiens, 72 h): 0.001 to 0.1 µM
Compound: Cc1sc2c(c1C)C(c1ccc(Cl)cc1)=N[C@@H](CC(=O)NC1CC3(C1)CC(Nc1ncccc1-c1ccc4c(c1)CC(=O)N4)C3)c1nnc(C)n1-2 (stereo partly drawn) [Compound 138, (S)-2-(4-(4-chlorophenyl)-2,3,9-trimethyl-6H-thieno[3,2-f][1,2,4]triazolo[4,3-a][1,4]diazepin-6-yl)-N-(6-((3-(2-oxoindolin-5-yl)pyridin-2-yl)amino)spiro[3.3]heptan-2-yl)acetamide]

- GI50 ([2]; Homo sapiens, 72 h): 0.1 to 1 µM
Compound: Cc1sc2c(c1C)C(c1ccc(Cl)cc1)=N[C@@H](CC(=O)Nc1ccc(OCCOCCNc3ncccc3-c3ccc4c(c3)CC(=O)N4)cc1)c1nnc(C)n1-2 [Compound 140, (S)-2-(4-(4-chlorophenyl)-2,3,9-trimethyl-6H-thieno[3,2-f][1,2,4]triazolo[4,3-a][1,4]diazepin-6-yl)-N-(4-(2-(2-((3-(2-oxoindolin-5-yl)pyridin-2-yl)amino)ethoxy)ethoxy)phenyl)acetamide]

- % BRD4 degradation (BRD4; 0.1 μM): M (protein degradation<40%)
- % BRD4 degradation (BRD4; 0.3 μM): L (40%≤protein degradation<70%)
- % BRD4 degradation (BRD4; 1 μM): L (40%≤protein degradation<70%)
- % BRD4 degradation (BRD4; 5 μM): K (Protein degradation >70%)
Compound: Cc1cc(NCCOCCOCCOCCOc2ccc(NC(=O)C[C@@H]3N=C(c4ccc(Cl)cc4)c4c(sc(C)c4C)-n4c(C)nnc43)cc2)ncc1-c1ccc2c(c1)CC(=O)N2 [Compound 148, (S)-2-(4-(4-chlorophenyl)-2,3,9-trimethyl-6H-thieno[3,2-f][1,2,4]triazolo[4,3-a][1,4]diazepin-6-yl)-N-(4-(2-(2-(2-(2-((4-methyl-5-(2-oxoindolin-5-yl)pyridin-2-yl)amino)ethoxy)ethoxy)ethoxy)ethoxy)phenyl)acetamide]

- % BRD4 degradation (BRD4; 0.1 μM): M (protein degradation<40%)
- % BRD4 degradation (BRD4; 0.3 μM): M (protein degradation<40%)
- % BRD4 degradation (BRD4; 1 μM): L (40%≤protein degradation<70%)
- % BRD4 degradation (BRD4; 5 μM): K (Protein degradation >70%)
Compound: Cc1cc(NCCOCCOCCOCCOc2ccc(NC(=O)C[C@@H]3N=C(c4ccc(Cl)cc4)c4c(sc(C)c4C)-n4c(C)nnc43)cc2)ncc1-c1cnc2c(c1)CC(=O)N2 [Compound 156, (S)-2-(4-(4-chlorophenyl)-2,3,9-trimethyl-6H-thieno[3,2-f][1,2,4]triazolo[4,3-a][1,4]diazepin-6-yl)-N-(4-(2-(2-(2-(2-((4-methyl-5-(2-oxo-2,3-dihydro-1H-pyrrolo[2,3-b]pyridin-5-yl)pyridin-2-yl)amino)ethoxy)ethoxy)ethoxy)ethoxy)phenyl)acetamide]
